We go through 20 compounds from patent EP0003920A1, “Thieno (3,2-c)- and thieno (2,3-c)pyridines, process for their preparation and their therapeutical application” (OMNIUM FINANCIER AQUITAINE POUR L'HYGIENE ET LA SANTE - …, priority 1978, dated 1979).

The subject of data set [1] is rat. As to the kind of experiment: Anticonvulsant action against electroshock. Format: in vivo. As to conditions: 100 mg/kg oral, electroshock 30 min after treatment, score 0 to 4, untreated controls 4. On the procedure:
Cette action a été étudiée vis-à-vis des électrochocs. L'application chez le rat d'une stimulation électrique supérieure au seuil électro-convulsivant provoque des convulsions expérimentales. On compare alors chez les animaux témoins et chez les animaux traités, à la fois la présence et la durée de chacune des phases convulsives et l'intensité de la crise dans son ensemble.
On établit des séries de 10 rats par produit à tester et on administre par la voie orale, à chaque animal, 100 mg/kg de ce produit.
De chaque côté de la base de la queue de chaque […], une électrode Cat mise en place et 30 minutes après le traitement, l'animal placé dans une enceinte de verre reçoit pendant 50 millisecondes un courant sinusoïdal de 50 périodes/secondes de 120 volts.
Le passage du courant déclenche une crise convulsive dont chacune des phases (tonique, clonique, relachement musculaire) est chronométrée. L'intensité de la crise est alors notée de 0 à 4 selon la présence de chacune des phases et leur durée. Les produits de l'invention sont testés comparativement au phénobarbital qui possède une action anti-convulsivante marquée (intensité de la crise = 2), alors que chez les animaux témoins non traités c'est l'intensité maxima de 4 qui est obtenue.

Data set [2] concerns rat. Briefly: Localised carrageenan-induced oedema. Format: in vivo. As to conditions: 100 mg/kg oral at -1 h, 0 h, +2.5 h. On the procedure:
Une solution de carragénine (0,1 ml), à 1 %, est injectée dans les fléchisseurs métatarsiens de la patte postérieure droite du rat au temps 0. Les animaux du lot traité reçoivent en outre, par la voie orale, 100 mg par kg du dérivé à tester respectivement 1 heure avant, en même temps que l'injection de l'agent phlogogène, puis 1 heure et 2 heures et demi après. Les mesures qui sont effectuées à l'aide du micromètre de ROGH au temps 0, 1 heure, 2 heures, 3 heures et 5 heures après l'administration de la carragénine permettent de déterminer, en fonction du temps, le pourcentage d'activité anti-inflammatoire, par comparaison avec le lot témoin.

For data set [3], the system named is rat. As to the kind of experiment: Generalised ovalbumin oedema. Format: in vivo. As to conditions: po, 100 mg/kg per os 1 h before and together with ovalbumin. As for the experimental part: Une injection intrapéritonéale simultanée de 1 ml d'ovalbumine et de 0,5 ml d'une solution aqueuse de bleu Evans à 1% est effectuée sur le rat. D'autre part, on administre per os aux animaux du lot traité 100 mg/kg du dérivé à tester une heure avant et en même temps que l'ovalbumine. L'intensité du phénomène ainsi provoqué est notée par un chiffre allant de 1 à 5 suivant la progression du syndrome inflammatoire. On détermine ainsi la moyenne de l'intensité oedémateuse et le pourcentage de diminution de la réaction oedémateuse par rapport au témoin, en fonction du temps.

Data set [4] has as its system souris. Briefly: Potentiation of an infra-hypnotic dose of sodium pentobarbital. Format: in vivo. The conditions noted are these: mouse, 100 mg/kg oral, 30 min before i.p. infra-hypnotic dose of sodium pentobarbital; control 0. On the procedure: Les composés de l'invention potentialisent de façon très nette l'action des hypnotiques. En effet, administrés à différents lots de souris par la voie orale, à la dose de 100 mg/ kg, trente minutes avant l'injection intrapéritonéale d'une dose infra-hypnotique de pentobarbital sodique, ils produisent par rapport aux animaux témoins non traités, une nette poten- tialisation de l'action du barbiturique.
En effet, le nombre de souris endormies, le temps moyen d'endormissement et la durée du sommeil sont nettement accrus dans les lots traités. Les résultats des composés les plus actifs sont rassemblés dans le Tableau I suivant.

The nature of data set [5]: Acute toxicity, intravenous LD50 (method of Miller and Tainter). The arrangement: species or system souris. As to conditions: mouse, in vivo, read-out: DL50/24 H/kg de poids corporel. As for the experimental part: En ce qui concerne la toxicité aigüe, la DL50/24 H/kg de poids corporel, déterminée chez la souris selon la méthode de Miller et Tainter pour la voie orale est supérieure à 400 mg pour tous les dérivés.
Selon la même méthode, la DL50/24 H/kg de poids corporel déterminée par la vole intraveineuse est, par exemple, de 154 mg pour le dérivé N° 1, de 89 mg pour le dérivé N° 2, de 184mg pour le dérivé N° 10, de 130 mg pour le dérivé N° 11, de 350mg pour le dérivé N° 12, de 65 mg pour le dérivé N° 18, de 90 mg pour le dérivé N° 22, de 96 mg pour le dérivé N° 24 et de 105 mg pour le dérivé N° 31.

Where [6] appears, read: 1 h after carrageenan, read-out: Pourcentage d'activité anti-inflammatoire 1ère heure.
[7] abbreviates: 2 h after carrageenan, read-out: Pourcentage d'activité anti-inflammatoire 2ème heure.
Setting [8] is: 3 h after carrageenan, read-out: Pourcentage d'activité anti-inflammatoire 3ème heure.
The mark [9] stands for this setting: 5 h after carrageenan, read-out: Pourcentage d'activité anti-inflammatoire 5ème heure.
The mark [10] stands for this setting: 2 h after ovalbumin injection, read-out: Pourcentage d'activité anti-inflammatoire 2ème heure.
[11] abbreviates: 3 h after ovalbumin injection, read-out: Pourcentage d'activité anti-inflammatoire 3ème heure.

Turning to `CC(C)NC(=O)c1cc2ccsc2cn1` [Dérivé 5, Isopropylaminocarbonyl-5 thiéno [2,3-c] pyridine], the “valeurs moyennes de l'intensité des crises” value in data set [1] is on record as 2,5. Besides, the inhibition in vivo at 100 mg/kg in data set [2] (setting [6]) came to 43%; in data set [2] (setting [7]), 49%; in data set [2] (setting [8]) it was 54%; in data set [2] (setting [9]), 56%; in data set [3] (setting [10]) it was 52%; in data set [3] (setting [11]), 60%. In data set [4], the “Pourcentage d'animaux endormis” value turned out to be 80%.

On to `COc1ccc(N2CCN(C(=O)c3cc4sccc4cn3)CC2)cc1` [Dérivé 29, (p-méthoxyphényl-4 pipérazinyl-1) carbonyl-6 tniéno[3,2-c] pyridine], for which, in data set [4], the “Pourcentage d'animaux endormis” value turned out to be 90%.

`CCNC(=O)c1cc2sccc2cn1` [Dérivé 4, Ethylaminocarbonyl-6 thiéno [3,2-c] pyridine]: in data set [1], the “valeurs moyennes de l'intensité des crises” value is 3. For the same compound, the inhibition in vivo at 100 mg/kg is 41% in data set [2] (setting [6]); 46% in data set [2] (setting [7]); 50% in data set [2] (setting [8]); 58% in data set [2] (setting [9]); 47% in data set [3] (setting [10]); 56% in data set [3] (setting [11]).

Regarding `O=C(c1cc2sccc2cn1)N1CCOCC1` [Dérivé 12, Morpholinocarbonyl-6 thiéno [3,2-c] pyridine], in data set [5], the LD50 at 24 h was found to be 350 mg/kg.

Take `Cc1ccc(N2CCN(C(=O)c3cc4sccc4cn3)CC2)cc1` [Dérivé 26, (p-tolyl-4 pipérazinyl-1)carbonyl-6 thiéno[3,2-c]bvridine]: in data set [4], the “Pourcentage d'animaux endormis” value worked out at 90%.

With `O=C(c1cc2sccc2cn1)N1CCN(c2ccccc2Cl)CC1` [Dérivé 27, (o-chlorophényl-4 pipérazinyl-1) carbonyl-6 thiéno[3,2-c] pyridine], the inhibition in vivo at 100 mg/kg in data set [2] (setting [6]) turned out to be 41%; in data set [2] (setting [7]), 49%; in data set [2] (setting [8]) it was 52%; in data set [2] (setting [9]), 54%; in data set [3] (setting [10]), 47%; in data set [3] (setting [11]) it was 56%.

Turning to `NC(=O)c1cc2ccsc2cn1` [Dérivé 32, Carbamoyl-5 thiéno [2,3-c] pyridine], the inhibition in vivo at 100 mg/kg amounted to 34% in data set [2] (setting [6]); 41% in data set [2] (setting [7]); 45% in data set [2] (setting [8]); 47% in data set [2] (setting [9]); 52% in data set [3] (setting [10]); 60% in data set [3] (setting [11]).

For the compound `O=C(Nc1cccc(C(F)(F)F)c1)c1cc2sccc2cn1` [Dérivé 25, (trifluorométhyl-3 phényl)aminocarbonyl-6 thiéno[3,2-c] pyridine], the “valeurs moyennes de l'intensité des crises” value in data set [1] is on record as 2,5. Further, the inhibition in vivo at 100 mg/kg in data set [2] (setting [6]) is 39%; in data set [2] (setting [7]), 46%; in data set [2] (setting [8]) it was 49%; in data set [2] (setting [9]), 52%; in data set [3] (setting [10]) it was 51%; in data set [3] (setting [11]), 59%. Further, in data set [4], the “Pourcentage d'animaux endormis” value was 90%.

On to `CCN(CC)C(=O)c1cc2sccc2cn1` [Dérivé 9, Diéthylaminocarbonyl-6 thiéno[3,2-c] pyridine], for which the “valeurs moyennes de l'intensité des crises” value in data set [1] was 2,5.

Regarding `O=C(NCc1ccccc1)c1cc2ccsc2cn1` [Dérivé 13, Benzylaminocarbonyl-5 thiéno [2,3-c] pyridine], the “valeurs moyennes de l'intensité des crises” value in data set [1] came to 3. The inhibition in vivo at 100 mg/kg worked out at 34% in data set [2] (setting [6]); 40% in data set [2] (setting [7]); 45% in data set [2] (setting [8]); 51% in data set [2] (setting [9]); 50% in data set [3] (setting [10]); 56% in data set [3] (setting [11]).

For the compound `O=C(c1cc2sccc2cn1)N1CCCCC1` [Dérivé 11, Pipéridinocaxbonyl-6 thiéno [3,2-c] pyridine], the LD50 at 24 h in data set [5] was 130 mg/kg.

As for `CCC1(c2ccccc2)C(=O)NC(=O)NC1=O` [phénobarbital, reference compound], in data set [1], the “valeurs moyennes de l'intensité des crises” value amounted to 2.

Turning to `O=C(NCc1cccnc1)c1cc2ccsc2cn1` [Dérivé 23, (pyridyl-3 méthyl)aminocarbonyl-5 thiéno [2,3-c]pyridine], the “Pourcentage d'animaux endormis” value in data set [4] amounted to 80%.

As to `COc1ccccc1N1CCN(C(=O)c2cc3ccsc3cn2)CC1` [Dérivé 30, (o-méthoxyphényl-4 pipérazinyl-1) carbonyl-5 thiéno[2,3-c] pyridine], in data set [1], the “valeurs moyennes de l'intensité des crises” value was 2,5. The inhibition in vivo at 100 mg/kg turned out to be 38% in data set [2] (setting [6]); 45% in data set [2] (setting [7]); 49% in data set [2] (setting [8]); 53% in data set [2] (setting [9]); 48% in data set [3] (setting [10]); 56% in data set [3] (setting [11]).

In the case of `O=C(NCCc1ccccc1)c1cc2sccc2cn1` [Dérivé 15, Phénéthylaminocarbonyl-6 thiéno[3,2-c] pyridine], the inhibition in vivo at 100 mg/kg came out at 38% in data set [2] (setting [6]); 45% in data set [2] (setting [7]); 49% in data set [2] (setting [8]); 53% in data set [2] (setting [9]); 53% in data set [3] (setting [10]); 60% in data set [3] (setting [11]). In addition, the “Pourcentage d'animaux endormis” value in data set [4] was 90%.

With `C=CCNC(=O)c1cc2sccc2cn1` [Dérivé 16, Allylaminocarbonyl-6 thiéno [3,2-c] pyridine], in data set [4], the “Pourcentage d'animaux endormis” value is 70%.

Regarding `CCCCNC(=O)c1cc2sccc2cn1` [Dérivé 6, n-butylaminocarbonyl-6 thiéno [3,2-c] pyridine], in data set [4], the “Pourcentage d'animaux endormis” value is given as 80%.

For the compound `O=C(NCc1ccncc1)c1cc2ccsc2cn1` [Dérivé 21, (pyridyl-4-méthyl)aminocarbonyl-5-thiéno[2,3-c] pyridine], the inhibition in vivo at 100 mg/kg was 40% in data set [2] (setting [6]); 48% in data set [2] (setting [7]); 51% in data set [2] (setting [8]); 54% in data set [2] (setting [9]); 45% in data set [3] (setting [10]); 52% in data set [3] (setting [11]).

For `O=C(c1cc2sccc2cn1)N1CCN(c2cccc(Cl)c2)CC1` [Dérivé 28, (m-chlorophényl-4 pipérazinyl-1)carbonyl-6 thiéno[3,2-c] pyridine], the “Pourcentage d'animaux endormis” value in data set [4] is 80%.

For `O=C(NCCN1CCOCC1)c1cc2sccc2cn1` [Dérivé 19, β -morpholinoéthylaminocarbonyl-6 thiéno[3,2-c] pyridine], the “valeurs moyennes de l'intensité des crises” value in data set [1] is 2,5.
